± gives the standard deviation of the averaged measurements.
What was measured:
Conditions in all cases: treatment time: 3 days
UT-SCC-24A [1] = assay: relative IC50 (midpoint of the fitted curve; maximal inhibition may be below 50%); higher = less potent
Protocol: (§1)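 HNSCC cell lines (500 cells/well, 384-well) were cultured on plastic, on top of (2D) or embedded (3D) in Matrigel or human leiomyoma matrix Myogel (500 ug/mL; Myogel 3D mixed with rat collagen I). Cells were treated for 3 days with 5 ten-fold concentrations of each drug, and viability was read by CellTiter-Glo. Viability was normalised to DMSO (0% inhibition) and 100 uM benzethonium chloride (100% inhibition) controls and fitted with the FIMM DSRT pipeline to give IC50 (nM), maximal % inhibition and the drug sensitivity score (DSS). Suffixes _1/_2/_3 on drug names are replicates.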

UT-SCC-24A [2] = assay: drug sensitivity score (DSS); higher = more sensitive
Protocol: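 HNSCC cell lines (500 cells/well, 384-well) were cultured on plastic, on top of (2D) or embedded (3D) in Matrigel or human leiomyoma matrix Myogel (500 ug/mL; Myogel 3D mixed with rat collagen I). Cells were treated for 3 days with 5 ten-fold concentrations of each drug, and viability was read by CellTiter-Glo. Suffixes _1/_2/_3 on drug names are replicates.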

UT-SCC-44 [3] = assay: relative IC50 (midpoint of the fitted curve; maximal inhibition may be below 50%); higher = less potent
Method in brief: (§2)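 Three growth formats were used for HPV-negative HNSCC cell lines in 384-well plates at 500 cells/well: bare plastic, wells coated with Matrigel or Myogel (500 µg/mL), and embedding in Matrigel or Myogel plus rat collagen I. Compounds were added at five 10-fold concentrations, and after 3 days CellTiter-Glo 2.0 luminescence was recorded and normalised to vehicle (0.1% DMSO) and cell-killing control wells. IC50, maximal inhibition and drug sensitivity score came from percent-inhibition dose–response fitting in the FIMM pipeline.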

UT-SCC-40 [4] = assay: as above
Method in brief: as §2

UT-SCC-42B [5] = assay: as above
Method in brief: as §2

UT-SCC-106A [6] = assay: as above
Method in brief: as §2

UT-SCC-73 [7] = assay: as above
Method in brief: as §2

UT-SCC-14 = assay: drug sensitivity score (DSS); higher = more sensitive; extreme values may be limits of the assay
Method in brief: as §2

UT-SCC-28 = assay: as above
Method in brief: as §2

UT-SCC-81 = assay: as above
Method in brief: as §2

UT-SCC-44 [8] = assay: as above
Method in brief: as §2

UT-SCC-40 [9] = assay: as above
Method in brief: as §2

UT-SCC-42B [10] = assay: as above
Method in brief: as §2

UT-SCC-8 = assay: as above
Method in brief: as §2

UT-SCC-106A [11] = assay: as above
Method in brief: as §2

UT-SCC-73 [12] = assay: as above
Method in brief: as §2

UT-SCC-24B = assay: as above
Method in brief: as §2

UT-SCC-42A = assay: as above
Method in brief: as §2

UT-SCC-24A [13] = assay: maximal % inhibition of viability relative to DMSO; higher = stronger effect
Protocol: as §1

[14] = culture condition: embedded in Matrigel
[15] = culture condition: embedded in Myogel + collagen I
[16] = culture condition: on top of Matrigel
[17] = culture condition: on top of Myogel
[18] = culture condition: plastic 2D (no matrix)

Q: Which “relative IC50” value (UT-SCC-24A [1]; [14]) does the source give for O=C(NC[C@H](O)CO)c1ccncc1Nc1ccc(I)cc1F [Pimasertib] here?
A: 4.15 nM

Q: And the “relative IC50” value (UT-SCC-24A [1]; [15])?
A: 77 nM

Q: What about the “relative IC50” value (UT-SCC-24A [1]; [16]) of the same compound?
A: 6.19 nM

Q: And the “relative IC50” value (UT-SCC-24A [1]; [17])?
A: 105 nM

Q: What about the “relative IC50” value (UT-SCC-24A [1]; [18]) of the same compound?
A: 10.2 nM

Q: And the drug sensitivity score (UT-SCC-24A [2]; [14])?
A: 34.8 ± 1.2 DSS

Q: And the drug sensitivity score (UT-SCC-24A [2]; [15])?
A: 18.5 ± 1.2 DSS

Q: And the drug sensitivity score (UT-SCC-24A [2]; [16])?
A: 31.6 ± 0.84 DSS

Q: And the drug sensitivity score (UT-SCC-24A [2]; [17])?
A: 15 ± 1.6 DSS

Q: And the drug sensitivity score (UT-SCC-24A [2]; [18])?
A: 28.3 ± 1.6 DSS

Q: What about the “relative IC50” value (UT-SCC-44 [3]; [16]) of the same compound?
A: 35.2 nM

Q: And the “relative IC50” value (UT-SCC-44 [3]; [17])?
A: 148 nM

Q: And the “relative IC50” value (UT-SCC-40 [4]; [14])?
A: 12.9 nM

Q: What about the “relative IC50” value (UT-SCC-40 [4]; [15]) of the same compound?
A: 45.4 nM

Q: And the “relative IC50” value (UT-SCC-40 [4]; [16])?
A: 30.1 nM

Q: And the “relative IC50” value (UT-SCC-40 [4]; [17])?
A: 89.4 nM

Q: And the “relative IC50” value (UT-SCC-40 [4]; [18])?
A: 89 nM

Q: And the “relative IC50” value (UT-SCC-42B [5]; [14])?
A: 12.4 nM

Q: What about the “relative IC50” value (UT-SCC-42B [5]; [16]) of the same compound?
A: 42.6 nM

Q: And the “relative IC50” value (UT-SCC-42B [5]; [17])?
A: 221 nM

Q: And the “relative IC50” value (UT-SCC-42B [5]; [18])?
A: 123 nM

Q: What about the “relative IC50” value (UT-SCC-106A [6]; [14]) of the same compound?
A: 11.7 nM

Q: What about the “relative IC50” value (UT-SCC-106A [6]; [15]) of the same compound?
A: 491 nM

Q: What about the “relative IC50” value (UT-SCC-106A [6]; [16]) of the same compound?
A: 11.5 nM

Q: What about the “relative IC50” value (UT-SCC-106A [6]; [17]) of the same compound?
A: 768 nM

Q: And the “relative IC50” value (UT-SCC-106A [6]; [18])?
A: 19 nM

Q: What about the “relative IC50” value (UT-SCC-73 [7]; [14]) of the same compound?
A: 20.4 nM

Q: And the “relative IC50” value (UT-SCC-73 [7]; [15])?
A: 95.9 nM

Q: What about the “relative IC50” value (UT-SCC-73 [7]; [16]) of the same compound?
A: 21 nM

Q: And the “relative IC50” value (UT-SCC-73 [7]; [17])?
A: 64.6 nM

Q: And the “relative IC50” value (UT-SCC-73 [7]; [18])?
A: 37.6 nM

Q: And the drug sensitivity score (UT-SCC-14; [14])?
A: 13.9 ± 3.4 DSS

Q: What about the drug sensitivity score (UT-SCC-14; [15]) of the same compound?
A: 12.2 ± 5.1 DSS

Q: And the drug sensitivity score (UT-SCC-14; [16])?
A: 10.6 ± 2.3 DSS

Q: And the drug sensitivity score (UT-SCC-14; [17])?
A: 8.27 ± 2.3 DSS

Q: And the drug sensitivity score (UT-SCC-14; [18])?
A: 8.03 ± 3.4 DSS

Q: And the drug sensitivity score (UT-SCC-28; [14])?
A: 12 ± 2.6 DSS

Q: And the drug sensitivity score (UT-SCC-28; [15])?
A: 9.97 ± 5.3 DSS

Q: What about the drug sensitivity score (UT-SCC-28; [16]) of the same compound?
A: 11.4 ± 1.6 DSS

Q: What about the drug sensitivity score (UT-SCC-28; [18]) of the same compound?
A: 5.03 ± 1.1 DSS

Q: And the drug sensitivity score (UT-SCC-81; [14])?
A: 29.9 ± 0.51 DSS

Q: And the drug sensitivity score (UT-SCC-81; [15])?
A: 9.3 ± 3.1 DSS

Q: And the drug sensitivity score (UT-SCC-81; [16])?
A: 24 ± 1.8 DSS

Q: And the drug sensitivity score (UT-SCC-81; [17])?
A: 9.87 ± 0.5 DSS

Q: And the drug sensitivity score (UT-SCC-81; [18])?
A: 14.9 ± 1.4 DSS

Q: And the drug sensitivity score (UT-SCC-44 [8]; [14])?
A: 26.7 ± 2.9 DSS

Q: What about the drug sensitivity score (UT-SCC-44 [8]; [15]) of the same compound?
A: 11.7 ± 3 DSS

Q: What about the drug sensitivity score (UT-SCC-44 [8]; [16]) of the same compound?
A: 22.7 ± 1.1 DSS

Q: And the drug sensitivity score (UT-SCC-44 [8]; [17])?
A: 13.1 ± 2.4 DSS

Q: What about the drug sensitivity score (UT-SCC-44 [8]; [18]) of the same compound?
A: 16.4 ± 4 DSS

Q: And the drug sensitivity score (UT-SCC-40 [9]; [14])?
A: 27.63 ± 0.058 DSS

Q: What about the drug sensitivity score (UT-SCC-40 [9]; [15]) of the same compound?
A: 20.2 ± 1.9 DSS

Q: What about the drug sensitivity score (UT-SCC-40 [9]; [16]) of the same compound?
A: 23.8 ± 1.2 DSS

Q: And the drug sensitivity score (UT-SCC-40 [9]; [17])?
A: 14.9 ± 0.91 DSS

Q: And the drug sensitivity score (UT-SCC-40 [9]; [18])?
A: 15.5 ± 0.85 DSS

Q: And the drug sensitivity score (UT-SCC-42B [10]; [14])?
A: 24.5 ± 2.7 DSS

Q: And the drug sensitivity score (UT-SCC-42B [10]; [16])?
A: 16.2 ± 1 DSS

Q: And the drug sensitivity score (UT-SCC-42B [10]; [17])?
A: 9.77 ± 0.96 DSS

Q: And the drug sensitivity score (UT-SCC-42B [10]; [18])?
A: 10.1 ± 0.55 DSS

Q: What about the drug sensitivity score (UT-SCC-8; [14]) of the same compound?
A: 20.5 ± 1.8 DSS

Q: What about the drug sensitivity score (UT-SCC-8; [15]) of the same compound?
A: 10.7 ± 0.15 DSS

Q: And the drug sensitivity score (UT-SCC-8; [16])?
A: 18.2 ± 1.3 DSS

Q: What about the drug sensitivity score (UT-SCC-8; [17]) of the same compound?
A: 17 ± 1.6 DSS

Q: What about the drug sensitivity score (UT-SCC-8; [18]) of the same compound?
A: 16.9 ± 1.8 DSS

Q: What about the drug sensitivity score (UT-SCC-106A [11]; [14]) of the same compound?
A: 19.4 ± 0.44 DSS

Q: What about the drug sensitivity score (UT-SCC-106A [11]; [15]) of the same compound?
A: 5.6 ± 0.27 DSS

Q: And the drug sensitivity score (UT-SCC-106A [11]; [16])?
A: 22.2 ± 0.52 DSS

Q: What about the drug sensitivity score (UT-SCC-106A [11]; [17]) of the same compound?
A: 6.27 ± 0.74 DSS

Q: And the drug sensitivity score (UT-SCC-106A [11]; [18])?
A: 22.2 ± 0.74 DSS

Q: What about the drug sensitivity score (UT-SCC-73 [12]; [14]) of the same compound?
A: 27.8 ± 0.5 DSS

Q: What about the drug sensitivity score (UT-SCC-73 [12]; [15]) of the same compound?
A: 18.7 ± 4.6 DSS

Q: What about the drug sensitivity score (UT-SCC-73 [12]; [16]) of the same compound?
A: 25.9 ± 0.64 DSS

Q: What about the drug sensitivity score (UT-SCC-73 [12]; [17]) of the same compound?
A: 19.1 ± 1.1 DSS

Q: What about the drug sensitivity score (UT-SCC-73 [12]; [18]) of the same compound?
A: 23 ± 0.68 DSS

Q: And the drug sensitivity score (UT-SCC-24B; [14])?
A: 15.6 ± 1.2 DSS

Q: What about the drug sensitivity score (UT-SCC-24B; [15]) of the same compound?
A: 14.4 ± 2 DSS

Q: What about the drug sensitivity score (UT-SCC-24B; [16]) of the same compound?
A: 15 ± 0.9 DSS

Q: What about the drug sensitivity score (UT-SCC-24B; [17]) of the same compound?
A: 9.1 ± 0.61 DSS

Q: And the drug sensitivity score (UT-SCC-24B; [18])?
A: 20.3 ± 1.8 DSS

Q: And the drug sensitivity score (UT-SCC-42A; [14])?
A: 20.9 ± 0.5 DSS

Q: And the drug sensitivity score (UT-SCC-42A; [15])?
A: 9.43 ± 1.3 DSS

Q: And the drug sensitivity score (UT-SCC-42A; [16])?
A: 20.5 ± 1.6 DSS

Q: And the drug sensitivity score (UT-SCC-42A; [17])?
A: 12.8 ± 0.46 DSS

Q: And the drug sensitivity score (UT-SCC-42A; [18])?
A: 16.33 ± 0.12 DSS

Q: And the “maximal % inhibition of viability” value (UT-SCC-24A [13]; [14])?
A: 85 ± 0.94%

Q: And the “maximal % inhibition of viability” value (UT-SCC-24A [13]; [15])?
A: 77.9 ± 2.9%

Q: What about the “maximal % inhibition of viability” value (UT-SCC-24A [13]; [16]) of the same compound?
A: 81.4 ± 1.8%

Q: What about the “maximal % inhibition of viability” value (UT-SCC-24A [13]; [17]) of the same compound?
A: 68 ± 3.4%

Q: And the “maximal % inhibition of viability” value (UT-SCC-24A [13]; [18])?
A: 79.3 ± 2.7%

From the supplement of paper PMC7017272
